Data taken from US4021472A, “Guanidinobenzoic acid derivatives” (Ono Pharmaceutical Co., Ltd., priority 1974, dated 1977).
In brackets after ≈: the same amount, converted by molar mass. Read-outs that look alike come from different tables or passages of the source.

Legend:
[1] = test system: plasmin; assay: Inhibitory effects for fibrinolysis of plasmin (fibrinolytic activity in rabbits after human serum and streptokinase); format: in vivo, rabbit; conditions: 5 mg/kg iv
Procedure: Inhibitory effects for fibrinolysis of plasmin were examined according to the method of S. Okamoto and U. Okamoto (Keio Journal of Medicine 11 (No. 3) 105 (1962)).
10 ml of human serum was administered to male rabbits weighing 2.0 to 2.5 Kg through the femoral vein, and after 2 minutes 50,000 units of streptokinase was administered to the rabbits intraveneously to activate plasmin.
Each of the test compounds of the present invention was administered to the rabbits at a dosage level of 5 mg/Kg 5 minutes after the administration of streptokinase. After 15, 30, 60, 90, 120 and 180 minutes, 0.5 ml of blood was drawn from the rabbits, and the blood then incubated at 37° C. for 3 hrs. to coagulate the blood. The thus formed blood clots were washed with water and dried. The dry weight of the blood clots was evaluated and compared with the normal value (the value obtained prior to administration of the human serum).
The values in Table 2 were calculated according to the following equation: [formula]

[2] = target: T1, trypsin (Bos taurus, UniProt P00760); assay: Anti-trypsin: 50% inhibition of hydrolysis of p-tosylarginine methyl ester by trypsin in vitro; format: biochemical; conditions: 37° C., 30 minutes, Tris-HCl buffer pH 8.5, p-tosylarginine methyl ester substrate; read-out: 50% Inhibition Concentration, Anti-Trypsin
T1 sequence (P00760 24-246): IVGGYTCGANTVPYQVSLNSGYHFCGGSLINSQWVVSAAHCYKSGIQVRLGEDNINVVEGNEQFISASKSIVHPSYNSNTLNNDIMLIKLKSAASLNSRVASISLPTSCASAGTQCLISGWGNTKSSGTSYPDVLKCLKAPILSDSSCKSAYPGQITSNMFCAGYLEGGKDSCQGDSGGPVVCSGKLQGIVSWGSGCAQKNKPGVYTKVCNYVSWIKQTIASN
Procedure: The inhibitory activities of representative compounds of formula (I) against plasmin and trypsin in vitro were determined in a manner similar to the method described by M. Muramatsu et al (J. Biochemistry 57, 402 (1965)) for plasmin, and the method described by M. Muramatsu et al (J. Biochemistry 58, 214 (1964)) for trypsin, as follows:
(2) Trypsin: A system comprising 0.4 ml of trypsin (1.25 μg/ml), 0.5 ml of p-tosylarginine methyl ester (20 mM) in Tris-HCl buffer (pH 8.5) and 0.1 ml of a solution of each of the following compounds of formula (I) at various concentrations was reacted at a temperature of 37° C. for 30 minutes. The concentration of each of the test compounds at which the activity of trypsin 0.5 μg to hydrolyze p-tosylarginine methyl ester was 50% inhibited is shown in Table 1 below. As a control, Trasylol (tradename of a peptide extracted from bovine organs having an inhibitory activity against a proteolytic enzyme and manufactured by Bayer A.G.) was used.

[3] = Solubility in water; format: physicochemical
[4] = target: T2, plasmin (Homo sapiens, UniProt P00747); assay: Anti-plasmin: 50% inhibition of plasmin in vitro (euglobulin/streptokinase/fibrinogen system); format: biochemical
T2 construct: from tissue
T2 sequence (P00747 581-810 limits assumed): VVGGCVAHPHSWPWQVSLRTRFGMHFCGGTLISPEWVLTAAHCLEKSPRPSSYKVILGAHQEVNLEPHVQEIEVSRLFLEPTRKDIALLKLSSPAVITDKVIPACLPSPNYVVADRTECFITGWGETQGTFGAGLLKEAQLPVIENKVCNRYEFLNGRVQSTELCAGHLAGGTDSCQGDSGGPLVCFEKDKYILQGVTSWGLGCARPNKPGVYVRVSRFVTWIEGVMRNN
T2 sequence (P00747 97-580 partner limits assumed): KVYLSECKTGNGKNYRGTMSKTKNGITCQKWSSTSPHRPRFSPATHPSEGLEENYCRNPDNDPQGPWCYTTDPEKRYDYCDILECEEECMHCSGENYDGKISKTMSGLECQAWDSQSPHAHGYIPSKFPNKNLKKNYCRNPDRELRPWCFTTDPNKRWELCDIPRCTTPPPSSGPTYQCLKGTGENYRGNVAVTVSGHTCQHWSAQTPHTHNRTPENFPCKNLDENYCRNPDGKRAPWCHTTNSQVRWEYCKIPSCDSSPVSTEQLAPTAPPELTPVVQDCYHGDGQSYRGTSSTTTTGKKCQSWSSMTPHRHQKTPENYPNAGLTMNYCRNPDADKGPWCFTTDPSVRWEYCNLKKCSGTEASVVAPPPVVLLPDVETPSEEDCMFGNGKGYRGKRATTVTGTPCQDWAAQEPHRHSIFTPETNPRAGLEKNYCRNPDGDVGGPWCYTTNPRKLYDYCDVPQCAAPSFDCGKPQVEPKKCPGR
Procedure: (1) Plasmin: A system comprising 0.1 ml of human euglobulin (10 fold dilution), 0.1 ml of streptokinase (2000 unit/ml), 0.4 ml of fibrinogen (4% solution), 0.3 ml of a 0.1 M borate saline buffer solution (pH 7.4) and 0.1 ml of a solution of each of the following compounds of formula (I) at various concentrations was allowed to react at a temperature of 37° C. for 30 minutes.

[5] = test system: rat pancreatitis; assay: Effect on rat pancreatitis induced by sodium taurocholate and trypsin (mortality); format: in vivo, rat (male Wistar); conditions: intravenous injection
Procedure: Male Wistar rats weighing 200 to 250 g were laparotomized under anesthetization with pentobarbital and to the thus laparotomized rats 0.1 ml of a mixture of sodium taurocholate and trypsin was administered through the pancreatic duct to induce pancreatitis.
Mortality rates for up to 48 hrs. after the administration were compared between the groups in which the compounds of the present invention were injected intravenously and the control groups in which a physiological salt solution was injected intravenously.

[6] = 37° C., 30 minutes, borate saline buffer pH 7.4, human euglobulin, streptokinase, fibrinogen, read-out: 50% Inhibition Concentration, Anti-Plasmin

IC50 [2] [nM]	solubility [3] [mM]	IC50 [4, 6] [nM]	SMILES	Fibrinolytic Activity in Rabbits ([1]; 15 min. after) [%]	Fibrinolytic Activity in Rabbits ([1]; 30 min. after) [%]	Fibrinolytic Activity in Rabbits ([1]; 60 min. after) [%]	Fibrinolytic Activity in Rabbits ([1]; 90 min. after) [%]	Fibrinolytic Activity in Rabbits ([1]; 120 min. after) [%]	Fibrinolytic Activity in Rabbits ([1]; 180 min. after) [%]	Mortality for 48 hrs. ([5]; 1 mg/kg) [%]	Mortality for 48 hrs. ([5]; 2.5 mg/kg) [%]	Mortality for 48 hrs. ([5]; 5.0 mg/kg) [%]	IC50 [4] [nM]
3	1 (≈ 356 µg/mL)	15	N=C(N)Nc1ccc(C(=O)Oc2ccc(C(=O)OCC(N)=O)cc2)cc1 [compound 1]	–	–	–	–	–	–	–	–	–	–
2.7	> 20	2	CN(C)C(=O)COC(=O)c1ccc(OC(=O)c2ccc(NC(=N)N)cc2)cc1 [compound 3]	–	–	–	–	–	–	–	–	–	–
1.4	10 (≈ 4410 µg/mL)	0.53	CCCN(CCC)C(=O)COC(=O)c1ccc(OC(=O)c2ccc(NC(=N)N)cc2)cc1 [compound 4]	–	–	–	–	–	–	–	–	–	–
0.09	10 (≈ 4100 µg/mL)	19.5	CN(C)C(=O)COC(=O)C=Cc1ccc(OC(=O)c2ccc(NC(=N)N)cc2)cc1 [compound 6]	–	–	–	–	–	–	–	–	–	–
0.56	10 (≈ 4120 µg/mL)	120	CN(C)C(=O)COC(=O)CCc1ccc(OC(=O)c2ccc(NC(=N)N)cc2)cc1 [compound 7]	–	–	–	–	–	–	–	–	–	–
12	10 (≈ 3840 µg/mL)	10	CNC(=O)COC(=O)Cc1ccc(OC(=O)c2ccc(NC(=N)N)cc2)cc1 [compound 8]	–	–	–	–	–	–	–	–	–	–

SMILES	IC50 [2] [nM]	solubility [3] [mM]	IC50 [4, 6] [nM]	Fibrinolytic Activity in Rabbits ([1]; 15 min. after) [%]	Fibrinolytic Activity in Rabbits ([1]; 30 min. after) [%]	Fibrinolytic Activity in Rabbits ([1]; 60 min. after) [%]	Fibrinolytic Activity in Rabbits ([1]; 90 min. after) [%]	Fibrinolytic Activity in Rabbits ([1]; 120 min. after) [%]	Fibrinolytic Activity in Rabbits ([1]; 180 min. after) [%]	Mortality for 48 hrs. ([5]; 1 mg/kg) [%]	Mortality for 48 hrs. ([5]; 2.5 mg/kg) [%]	Mortality for 48 hrs. ([5]; 5.0 mg/kg) [%]	IC50 [4] [nM]
CNC(=O)COC(=O)c1ccc(OC(=O)c2ccc(NC(=N)N)cc2)cc1 [Compound No.2]	3.5	50 (≈ 18500 µg/mL)	1.6	0	0	2	2	12	31	85.7	42.8	30	–
CN(C)C(=O)COC(=O)Cc1ccc(OC(=O)c2ccc(NC(=N)N)cc2)cc1 [Compound No.5]	8.5	100 (≈ 39800 µg/mL)	–	0	0	4	20	46	52	64.2	50.0	44.4	38
